The values that follow come from US8815893B2, “Hetarylaminonaphthyridines” (Merck Patent GmbH, priority 2010, dated 2014).

Where only a bound is given, the exact number is not on record here.

One experiment concerns the target T1, GST-ALK5 (Homo sapiens, UniProt P36897).
T1 sequence (P36897 34-503): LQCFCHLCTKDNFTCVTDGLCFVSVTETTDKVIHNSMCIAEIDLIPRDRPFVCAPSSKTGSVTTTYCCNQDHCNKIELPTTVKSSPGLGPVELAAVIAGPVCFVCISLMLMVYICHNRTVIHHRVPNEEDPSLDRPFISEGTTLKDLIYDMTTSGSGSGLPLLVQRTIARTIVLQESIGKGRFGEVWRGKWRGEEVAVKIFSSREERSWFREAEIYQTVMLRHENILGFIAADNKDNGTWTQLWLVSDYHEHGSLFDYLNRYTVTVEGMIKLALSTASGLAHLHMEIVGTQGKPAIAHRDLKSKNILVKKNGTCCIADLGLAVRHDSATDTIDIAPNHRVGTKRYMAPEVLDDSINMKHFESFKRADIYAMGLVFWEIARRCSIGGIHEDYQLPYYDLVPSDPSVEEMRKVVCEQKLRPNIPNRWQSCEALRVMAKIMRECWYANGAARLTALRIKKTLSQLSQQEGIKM
The experiment is described as follows: In-vitro (enzyme) kinase assay, 384-well flashplate (example 14). In kind it is biochemical. The settings on record: GST-ALK5, GST-SMAD2 substrate, 33P-ATP flashplate, 30° C. 45 min; IC50 classes; read-out: TβR activity (example 14). The procedure: In-Vitro (Enzyme) Assay for Determination of the Efficacy of Inhibitors of the Inhibition of TGF-Beta-Mediated Effects
The kinase assay was carried out as 384-well flashplate assay. 31.2 nM of GST-ALK5, 439 nM of GST-SMAD2 and 3 mM of ATP (with 0.3 μCi of ^33P-ATP/well) were incubated in a total volume of 35 μl (20 mM of HEPES, 10 mM of MgCl2, 5 mM of MnCl2, 1 mM of DTT, 0.1% of BSA, pH 7.4) without or with test substance (5-10 concentrations) at 30° C. for 45 min. The reaction was stopped using 25 μl of 200 mM EDTA solution, filtered with suction at room temperature after 30 min, and the wells were washed with 3 times 100 μl of 0.9% NaCl solution. Radioactivity was measured in the TopCount. The IC50 values were calculated using RS1. Above and below, all temperatures were indicated in ° C.
Turning to `Cc1cccc(-c2cc(-n3nc(C)c4cnccc43)c3cccnc3n2)n1` [compound 77], the IC50 was below 100 nM.
Consider `Nc1cc(Nc2cc(-c3ccccc3F)nc3ncccc23)ncn1` [compound 86], for which the IC50 is below 100 nM.
On the same count and under the same terms, the same measure for `Oc1nccc(Nc2cc(-c3cc(Cl)ccc3F)nc3ncccc23)n1` [compound 76]: 100 to 1000 nM; for `NC(=O)Nc1cc(Nc2cc(-c3cc(F)ccc3F)nc3ncccc23)ccn1` [compound 143]: below 100 nM.
For `Fc1ccc(Cl)cc1-c1cc(Nc2cc(NC3CCCCC3)ncn2)c2cccnc2n1` [compound 124], the IC50 was 1000 to 10000 nM.
For the molecule `CC(C)(C)CC(=O)Nc1cc(Nc2cc(-c3cc(Cl)ccc3F)nc3ncccc23)ncn1` [compound 104], the IC50 is below 100 nM.
On the same count and under the same terms, the same measure for `CC(C)C(=O)Nc1cc(Nc2cc(-c3cc(Cl)ccc3F)nc3ncccc23)ncn1` [compound 92]: below 100 nM; for `CNC(=O)c1cc(Nc2cc(-c3cc(F)ccc3F)nc3ncccc23)ccn1` [compound 118]: 100 to 1000 nM; for `CC(C)(N)CC(=O)Nc1cc(Nc2cc(-c3cc(F)ccc3F)nc3ncccc23)ncn1` [compound 107]: below 100 nM.
Still for that read-out and setting: under `Cc1nn(-c2cc(-c3cc(F)ccc3F)nc3ncccc23)c2ccncc12` [compound 100] stands below 100 nM.
Same read-out and setting: under `CCN1CCC(CNc2cc(Nc3cc(-c4cc(F)ccc4F)nc4ncccc34)ncn2)CC1` [compound 141] stands below 100 nM.
On to `Fc1ccc(F)c(-c2cc(-n3ccc4cnccc43)c3cccnc3n2)c1` [compound 129], for which the IC50 was below 100 nM.
The same measure, in the same setting: the same measure for `Fc1ccccc1-c1cc(-n2ccc3cncnc32)c2cccnc2n1` [compound 96]: 100 to 1000 nM.
Take `CC(=O)Nc1nccc(Nc2cc(-c3cc(Cl)ccc3F)nc3ncccc23)n1` [compound 98]: the IC50 is below 100 nM.
Turning to `CC(C)(C)C(=O)Nc1cc(Nc2cc(-c3cc(Cl)ccc3F)nc3ncccc23)ncn1` [compound 101], the IC50 was in the range of 100 to 1000 nM.
On the same count and under the same terms, under `CC(C)(C)CCNc1cc(Nc2cc(-c3cc(Cl)ccc3F)nc3ncccc23)ncn1` [compound 126] stands 100 to 1000 nM; under `Cc1cccc(-c2cc(Nc3ccncc3CO)c3cccnc3n2)n1` [compound 81], below 100 nM.
Take `CC(C)(C)OC(=O)NC(C)(C)C(=O)Nc1cc(Nc2cc(-c3cc(Cl)ccc3F)nc3ncccc23)ncn1` [compound 134]: the IC50 is above 10000 nM.
For `O=[N+]([O-])c1cn(-c2cc(-c3cc(Cl)ccc3F)nc3ncccc23)c2ccncc12` [compound 139], the IC50 is below 100 nM.
As to `CC(C)(C)CC(=O)Nc1cc(Nc2cc(-c3cc(F)ccc3F)nc3ncccc23)ncn1` [compound 105], the IC50 was below 100 nM.
Turning to `CC(C)(C)CC(=O)Nc1cc(Nc2cc(-c3cc(Cl)ccc3F)nc3ncccc23)ccn1` [compound 87], the IC50 is below 100 nM.
Regarding `O=C(CO)Nc1cc(Nc2cc(-c3cc(Cl)ccc3F)nc3ncccc23)ccn1` [compound 82], the IC50 was below 100 nM.
On to `Cc1cccc(-c2cc(Nc3ccnc(NC(N)=O)c3)c3cccnc3n2)n1` [compound 85], for which the IC50 was below 100 nM.
As to `Nc1cc(Nc2cc(-c3cc(F)ccc3F)nc3ncccc23)ncn1` [compound 106], the IC50 is below 100 nM.
Take `CCN1CCC(Nc2cc(Nc3cc(-c4cc(Cl)ccc4F)nc4ncccc34)ncn2)CC1` [compound 127]: the IC50 lay in the range of 1000 to 10000 nM.
Consider `CN(C)CCNc1cc(Nc2cc(-c3cc(Cl)ccc3F)nc3ncccc23)ncn1` [compound 120], for which the IC50 lay in the range of 100 to 1000 nM.
For `CN(C)c1cc(Nc2cc(-c3cc(F)ccc3F)nc3ncccc23)ncn1` [compound 137], the IC50 was above 10000 nM.
In the case of `O=C(NCCN1CCCC1)c1cc(Nc2cc(-c3cc(F)ccc3F)nc3ncccc23)ccn1` [compound 122], the IC50 was 1000 to 10000 nM.
For `CN1CCC(NC(=O)c2cnccc2Nc2cc(-c3cc(F)ccc3F)nc3ncccc23)CC1` [compound 113], the IC50 was below 100 nM.
As for `CC(=O)Nc1cc(Nc2cc(-c3cc(F)ccc3F)nc3ncccc23)ncn1` [compound 89], the IC50 was below 100 nM.

The test system of a further experiment is lung epithelial cell line Mv1Lu. The experiment is described as follows: Cellular assay for TGF-beta receptor I kinase inhibitors: elimination of TGF-beta-mediated growth inhibition (example 13). The following applies: 48 h; Mv1Lu cells, 1 ng/ml TGF-beta, 0.5% FCS, two days, Crystal Violet staining; read-out: TβR activity (example 13). In kind it is cell-based. As to the method:
Cellular Assay for Testing TGF-Beta Receptor I Kinase Inhibitors
As an example, the ability of the inhibitors to eliminate TGF-beta-mediated growth inhibition was tested. Cells of the lung epithelial cell line Mv1Lu were sown in a defined cell density in a 96-well microtiter plate and cultivated overnight under standard conditions. Next day, the medium was replaced by medium which comprises 0.5% of FCS and 1 ng/ml of TGF-beta, and the test substances were added in defined concentrations, generally in the form of dilution series with 5 fold steps. The concentration of the solvent DMSO was constant at 0.5%. After a further two days, Crystal Violet staining of the cells was carried out. After extraction of the Crystal Violet from the fixed cells, the absorption was measured spectrophotometrically at 550 nm. It could be used as a quantitative measure of the adherent cells present and thus of the cell proliferation during the culture.
Turning to `Cc1cccc(-c2cc(-n3nc(C)c4cnccc43)c3cccnc3n2)n1` [compound 77], the IC50 fell in the range of 1000 to 10000 nM.
On to `Nc1cc(Nc2cc(-c3ccccc3F)nc3ncccc23)ncn1` [compound 86], for which the IC50 lay within 100 to 1000 nM.
Consider `Oc1nccc(Nc2cc(-c3cc(Cl)ccc3F)nc3ncccc23)n1` [compound 76], for which the IC50 was 1000 to 10000 nM.
`NC(=O)Nc1cc(Nc2cc(-c3cc(F)ccc3F)nc3ncccc23)ccn1` [compound 143]: the IC50 is below 100 nM.
`Fc1ccc(Cl)cc1-c1cc(Nc2cc(NC3CCCCC3)ncn2)c2cccnc2n1` [compound 124]: the IC50 was above 10000 nM.
As for `CC(C)(C)CC(=O)Nc1cc(Nc2cc(-c3cc(Cl)ccc3F)nc3ncccc23)ncn1` [compound 104], the IC50 was below 100 nM.
For the molecule `CC(C)C(=O)Nc1cc(Nc2cc(-c3cc(Cl)ccc3F)nc3ncccc23)ncn1` [compound 92], the IC50 was below 100 nM.
With `CNC(=O)c1cc(Nc2cc(-c3cc(F)ccc3F)nc3ncccc23)ccn1` [compound 118], the IC50 was in the range of 1000 to 10000 nM.
With `CC(C)(N)CC(=O)Nc1cc(Nc2cc(-c3cc(F)ccc3F)nc3ncccc23)ncn1` [compound 107], the IC50 was below 100 nM.
`Cc1nn(-c2cc(-c3cc(F)ccc3F)nc3ncccc23)c2ccncc12` [compound 100]: the IC50 lay within 100 to 1000 nM.
In the case of `CCN1CCC(CNc2cc(Nc3cc(-c4cc(F)ccc4F)nc4ncccc34)ncn2)CC1` [compound 141], the IC50 lay in the range of 100 to 1000 nM.
Same read-out and setting: the same measure for `Fc1ccc(F)c(-c2cc(-n3ccc4cnccc43)c3cccnc3n2)c1` [compound 129]: 100 to 1000 nM; for `Fc1ccccc1-c1cc(-n2ccc3cncnc32)c2cccnc2n1` [compound 96]: 1000 to 10000 nM.
As to `CC(=O)Nc1nccc(Nc2cc(-c3cc(Cl)ccc3F)nc3ncccc23)n1` [compound 98], the IC50 was below 100 nM.
Take `CC(C)(C)C(=O)Nc1cc(Nc2cc(-c3cc(Cl)ccc3F)nc3ncccc23)ncn1` [compound 101]: the IC50 lay within 1000 to 10000 nM.
`CC(C)(C)CCNc1cc(Nc2cc(-c3cc(Cl)ccc3F)nc3ncccc23)ncn1` [compound 126]: the IC50 was in the range of 100 to 1000 nM.
In the case of `Cc1cccc(-c2cc(Nc3ccncc3CO)c3cccnc3n2)n1` [compound 81], the IC50 was 100 to 1000 nM.
Consider `CC(C)(C)OC(=O)NC(C)(C)C(=O)Nc1cc(Nc2cc(-c3cc(Cl)ccc3F)nc3ncccc23)ncn1` [compound 134], for which the IC50 was above 10000 nM.
As for `O=[N+]([O-])c1cn(-c2cc(-c3cc(Cl)ccc3F)nc3ncccc23)c2ccncc12` [compound 139], the IC50 lay in the range of 1000 to 10000 nM.
In the case of `CC(C)(C)CC(=O)Nc1cc(Nc2cc(-c3cc(F)ccc3F)nc3ncccc23)ncn1` [compound 105], the IC50 lay in the range of 100 to 1000 nM.
`CC(C)(C)CC(=O)Nc1cc(Nc2cc(-c3cc(Cl)ccc3F)nc3ncccc23)ccn1` [compound 87]: the IC50 was below 100 nM.
For `O=C(CO)Nc1cc(Nc2cc(-c3cc(Cl)ccc3F)nc3ncccc23)ccn1` [compound 82], the IC50 is below 100 nM.
Same read-out and setting: under `Cc1cccc(-c2cc(Nc3ccnc(NC(N)=O)c3)c3cccnc3n2)n1` [compound 85] stands 100 to 1000 nM; under `Nc1cc(Nc2cc(-c3cc(F)ccc3F)nc3ncccc23)ncn1` [compound 106], 100 to 1000 nM.
The same measure, in the same setting: under `CCN1CCC(Nc2cc(Nc3cc(-c4cc(Cl)ccc4F)nc4ncccc34)ncn2)CC1` [compound 127] stands 1000 to 10000 nM; under `CN(C)CCNc1cc(Nc2cc(-c3cc(Cl)ccc3F)nc3ncccc23)ncn1` [compound 120], 100 to 1000 nM; under `CN(C)c1cc(Nc2cc(-c3cc(F)ccc3F)nc3ncccc23)ncn1` [compound 137], above 10000 nM.
Same read-out and setting: under `O=C(NCCN1CCCC1)c1cc(Nc2cc(-c3cc(F)ccc3F)nc3ncccc23)ccn1` [compound 122] stands above 10000 nM; under `CN1CCC(NC(=O)c2cnccc2Nc2cc(-c3cc(F)ccc3F)nc3ncccc23)CC1` [compound 113], below 100 nM; under `CC(=O)Nc1cc(Nc2cc(-c3cc(F)ccc3F)nc3ncccc23)ncn1` [compound 89], below 100 nM.
